For 11 compounds, IC50 results are on record in patent US20070249590A1, “Substituted indolo[2,3-a]pyrrolo[3,4-c]carbazole compounds useful in treating kinase disorders” (priority 2005, published 2007).

pIC50: −log10 of the molar value.

The target in the assay is T1, JAK3 (JH1 and JH2 domain) (Homo sapiens, UniProt P52333).
T1 sequence (P52333 521-1111 limits assumed): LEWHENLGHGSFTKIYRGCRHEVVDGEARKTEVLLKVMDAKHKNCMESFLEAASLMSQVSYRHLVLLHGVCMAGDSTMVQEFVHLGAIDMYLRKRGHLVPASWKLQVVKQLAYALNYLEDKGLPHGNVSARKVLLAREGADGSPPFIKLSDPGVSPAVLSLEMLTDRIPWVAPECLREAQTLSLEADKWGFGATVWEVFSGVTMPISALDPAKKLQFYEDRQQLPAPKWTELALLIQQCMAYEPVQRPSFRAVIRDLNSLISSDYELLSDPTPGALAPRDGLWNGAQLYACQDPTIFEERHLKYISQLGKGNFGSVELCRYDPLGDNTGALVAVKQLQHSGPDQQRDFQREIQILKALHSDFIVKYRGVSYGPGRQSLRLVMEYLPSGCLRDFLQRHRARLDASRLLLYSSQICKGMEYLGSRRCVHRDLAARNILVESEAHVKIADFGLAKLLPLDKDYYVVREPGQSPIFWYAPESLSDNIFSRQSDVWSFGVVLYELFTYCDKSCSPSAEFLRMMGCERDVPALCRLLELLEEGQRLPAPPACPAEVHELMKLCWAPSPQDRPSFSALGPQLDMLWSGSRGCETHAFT
In words: JAK3 Kinase Assay (ELISA of peptide substrate phosphorylation). Particulars: purified JAK3 enzyme, 10 μM ATP, biotinylated peptide substrate, 1 hour at room temperature. In kind it is biochemical. A digest of the protocol:
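Sf21-baculovirus-expressed JAK3 (JH1+JH2), glutathione-bead purified, with biotinylated peptide substrate (in buffer containing 10 μM ATP) in HEPES pH 7.5/MgCl2/DTT, 1 h RT. Product was captured on Neutravidin, detected with HRP anti-phosphotyrosine (PY99)/TMB, OD 450/650 nm. Triplicate 16-point half-log series from 200 μM gave IC50; otherwise % inhibition at 1 μM.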
For orientation: An ELISA detects its analyte on a solid surface through an enzyme-linked reagent.
For orientation: pIC50 means the negative decadic logarithm of the IC50, by convention in mol/L. As to `O=C1NCc2c1c1c3ccccc3n3c1c1c2c2ccccc2n1CC(COC(=O)N1CCN(Cc2ccc4c(c2)OCO4)CC1)C3` (centres unmarked) [Cpd 170, 12,13-(2-{[4-(benzo[1,3]dioxol-5-ylmethyl)piperazin-1-yl]carbonyloxymethyl}-propan-1,3-yl}-6,7,12,13-tetrahydro-5-oxo-5H-indolo[2,3-a]pyrrolo[3,4-c]carbazole], the negative logarithm of the IC50 (pIC50) is 6.69.

Consider `CN(C)[C@H]1CCN(C(=O)OCC2Cn3c4ccccc4c4c5c(c6c7ccccc7n(c6c43)C2)C(=O)NC5)C1` (stereo partly drawn) [Cpd 171, 12,13-(2-{[(3S)-3-dimethylamino-pyrrolidin-1-yl]carbonyloxymethyl}-propan-1,3-yl)-6,7,12,13-tetrahydro-5-oxo-5H-indolo[2,3-a]pyrrolo[3,4-c]carbazole], for which the negative logarithm of the IC50 (pIC50) was 6.17. As for `COc1ccc(CCNC(=O)OCC2Cn3c4ccccc4c4c5c(c6c7ccccc7n(c6c43)C2)C(=O)NC5)cc1OC` (centres unmarked) [Cpd 161, 12,13-(2-{[2-(3,4-dimethoxy-phenyl)ethyl]carbamoyloxymethyl}-propan-1,3-yl)-6,7,12,13-tetrahydro-5-oxo-5H-indolo[2,3-a]pyrrolo[3,4-c]carbazole], the pIC50 was 6.00. As for `O=C1NCc2c1c1c3ccccc3n3c1c1c2c2ccccc2n1CCC(OC(=O)N1CCOCC1)CC3` (centres unmarked) [Cpd 185, 12,13-[3-(morpholin-4-yl-carbonyloxy)-pentan-1,5-yl]-6,7,12,13-tetrahydro-5-oxo-5H-indolo[2,3-a]pyrrolo[3,4-c]carbazole], the negative logarithm of the IC50 (pIC50) is 7.16. Regarding `O=C1NC(=O)c2c1c1c3ccccc3n3c1c1c2c2ccccc2n1CC(OC(=O)N1CCN(c2ccccn2)CC1)CC3` (centres unmarked) [Cpd 63, 12,13-{2-[(4-pyridin-2-yl-piperazin-1-yl)carbonyloxy]-butan-1,4-yl}-12,13-dihydro-5,7-dioxo-6H-indolo[2,3-a]pyrrolo[3,4-c]carbazole], the negative logarithm of the IC50 (pIC50) is 6.89. As to `O=C(NCc1ccc2c(c1)OCO2)OC1CCn2c3ccccc3c3c4c(c5c6ccccc6n(c5c32)C1)C(=O)NC4=O` (centres unmarked) [Cpd 46, 12,13-{2-[(benzo[1,3]dioxol-5-yl-methyl)carbamoyloxy]-butan-1,4-yl}-12,13-dihydro-5,7-dioxo-6H-indolo[2,3-a]pyrrolo[3,4-c]carbazole], the negative logarithm of the IC50 (pIC50) was 7.18. Regarding `CN(C)CCCN1CCN(C(=O)OC2CCCn3c4ccccc4c4c5c(c6c7ccccc7n(c6c43)C2)C(=O)NC5=O)CC1` (centres unmarked) [Cpd 115, 12,13-(2-{[4-(3-dimethylamino-prop-1-yl)piperazin-1-y]carbonyloxy}-pentan-1,5-yl)-12,13-dihydro-5,7-dioxo-6H-indolo[2,3-a]pyrrolo[3,4-c]carbazole], the negative-log IC50 (pIC50) is under 6.70. With `O=C1NC(=O)c2c1c1c3ccccc3n3c1c1c2c2ccccc2n1CC(O)(C(=O)NCCc1cccs1)C(O)C3` (centres unmarked) [Cpd 128, 12,13-{2-[(2-thien-2-yl-ethyl)carbamoyl]-2,3-dihydroxy-butan-1,4-yl}-12,13-dihydro-5,7-dioxo-6H-indolo[2,3-a]pyrrolo[3,4-c]carbazole], the pIC50 was 7.03.

With `COCCNCc1ccc2c(c1)c1c3c(c4c5ccccc5n5c4c1n2CC(O)C(O)C5)CNC3=O` (centres unmarked) [Cpd 198, 3-[(2-methoxy-ethyl)aminomethyl]-12,13-(2,3-dihydroxy-butan-1,4-yl)-6,7,12,13-tetrahydro-5-oxo-5H-indolo[2,3-a]pyrrolo[3,4-c]carbazole], the negative logarithm of the IC50 (pIC50) is 6.45. `O=C1NCc2c1c1c3ccccc3n3c1c1c2c2ccccc2n1CC(COC(=O)N1CCN(CCOCCO)CC1)C3` (centres unmarked) [Cpd 166, 12,13-[2-({4-[2-(2-hydroxy-ethoxy)ethyl]piperazin-1-yl}carbonyloxymethyl)-propan-1,3-yl]-6,7,12,13-tetrahydro-5-oxo-5H-indolo[2,3-a]pyrrolo[3,4-c]carbazole]: the pIC50 is 6.24.

Consider `O=C1NC(=O)c2c1c1c3ccccc3n3c1c1c2c2ccccc2n1CC(O)(C(=O)N1CCN(CCN2CCOCC2)CC1)C(O)C3` (centres unmarked) [Cpd 134, 12,13-(2-{[4-(2-morpholin-4-yl-ethyl)piperazin-1-yl]carbonyl}-2,3-dihydroxy-butan-1,4-yl)-12,13-dihydro-5,7-dioxo-6H-indolo[2,3-a]pyrrolo[3,4-c]carbazole], for which the pIC50 is 7.28.
